Experimental data: PubChem BioAssay (NCI)
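Assay format: 96-well plates, 48-hour exposure. GI50 marks 50% less growth. TGI: total growth inhibition.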

How the values were obtained:
Test in all cases: NCI tumour cell line growth inhibition, 48 h
[1] = tested on: 786-0 renal
[2] = tested on: A498 renal
[3] = tested on: A549 NSCLC
[4] = tested on: ACHN renal
[5] = tested on: BT-549 breast
[6] = tested on: CAKI-1 renal
[7] = tested on: CCRF-CEM leukemia
[8] = tested on: COLO 205 colon
[9] = tested on: DU-145 prostate
[10] = tested on: HCC-2998 colon
[11] = tested on: HCT-116 colon
[12] = tested on: HCT-15 colon
[13] = tested on: HL-60(TB) leukemia
[14] = tested on: HOP-62 NSCLC
[15] = tested on: HOP-92 NSCLC
[16] = tested on: HS 578T breast
[17] = tested on: HT29 colon
[18] = tested on: IGROV1 ovarian
[19] = tested on: K-562 leukemia
[20] = tested on: KM12 colon
[21] = tested on: LOX IMVI melanoma
[22] = tested on: M14 melanoma
[23] = tested on: MALME-3M melanoma
[24] = tested on: MCF7 breast
[25] = tested on: MDA-MB-231 breast
[26] = tested on: MDA-MB-435
[27] = tested on: MOLT-4 leukemia
[28] = tested on: NCI-H226 lung
[29] = tested on: NCI-H23 lung
[30] = tested on: NCI-H460 lung
[31] = tested on: NCI-H522 lung
[32] = tested on: NCI/ADR-RES ovarian
[33] = tested on: OVCAR-3 ovarian
[34] = tested on: OVCAR-4 ovarian
[35] = tested on: OVCAR-5 ovarian
[36] = tested on: OVCAR-8 ovarian
[37] = tested on: PC-3 prostate
[38] = tested on: RPMI-8226 leukemia
[39] = tested on: RXF 393 renal
[40] = tested on: SF-268 CNS
[41] = tested on: SF-295 CNS
[42] = tested on: SF-539 CNS
[43] = tested on: SK-MEL-2 melanoma
[44] = tested on: SK-MEL-28 melanoma
[45] = tested on: SK-MEL-5 melanoma
[46] = tested on: SK-OV-3 ovarian
[47] = tested on: SN12C renal
[48] = tested on: SNB-19 CNS
[49] = tested on: SNB-75 CNS
[50] = tested on: SR leukemia
[51] = tested on: SW-620 colon
[52] = tested on: T-47D breast
[53] = tested on: TK-10 renal
[54] = tested on: U251 CNS
[55] = tested on: UACC-257 melanoma
[56] = tested on: UACC-62 melanoma
[57] = tested on: UO-31 renal
[58] = tested on: EKVX NSCLC

SMILES: COc1cc(Cl)cc(-c2nn(-c3cccc(NC(=O)Nc4cc(C(F)(F)F)cc(C(F)(F)F)c4)c3)cc2-c2ccncc2)c1
- GI50 [1]: 0.821 µM
- TGI [1]: 2.64 µM
- GI50 [2]: 0.629 µM
- TGI [2]: 4.81 µM
- GI50 [3]: 0.386 µM
- TGI [3]: 5.62 µM
- GI50 [4]: 0.401 µM
- TGI [4]: 12.7 µM
- GI50 [5]: 2.34 µM
- TGI [5]: 6.78 µM
- GI50 [6]: 0.426 µM
- TGI [6]: 4.4 µM
- GI50 [7]: 0.312 µM
- TGI [7]: 1.52 µM
- GI50 [8]: 0.528 µM
- TGI [8]: 1.97 µM
- GI50 [9]: 0.53 µM
- TGI [9]: 12.4 µM
- GI50 [10]: 0.963 µM
- TGI [10]: 5.42 µM
- GI50 [11]: 0.356 µM
- TGI [11]: 1.46 µM
- GI50 [12]: 0.383 µM
- TGI [12]: 2.74 µM
- GI50 [13]: 0.32 µM
- TGI [13]: 2.49 µM
- GI50 [14]: 0.851 µM
- TGI [14]: 2.6 µM
- GI50 [15]: 0.228 µM
- TGI [15]: 0.783 µM
- GI50 [16]: 1.89 µM
- TGI [16]: 13.6 µM
- GI50 [17]: 0.443 µM
- TGI [17]: 2.38 µM
- GI50 [18]: 0.669 µM
- TGI [18]: 13.4 µM
- GI50 [19]: 0.339 µM
- TGI [19]: 8.09 µM
- GI50 [20]: 0.447 µM
- TGI [20]: 2.77 µM
- GI50 [21]: 0.513 µM
- TGI [21]: 2.29 µM
- GI50 [22]: 0.481 µM
- TGI [22]: 2.3 µM
- GI50 [23]: 0.73 µM
- TGI [23]: 4.77 µM
- GI50 [24]: 0.439 µM
- TGI [24]: 9.3 µM
- GI50 [25]: 0.726 µM
- TGI [25]: 2.26 µM
- GI50 [26]: 0.684 µM
- TGI [26]: 2.62 µM
- GI50 [27]: 0.33 µM
- TGI [27]: 1.92 µM
- GI50 [28]: 0.965 µM
- TGI [28]: 7.67 µM
- GI50 [29]: 0.332 µM
- TGI [29]: 2.01 µM
- GI50 [30]: 0.374 µM
- TGI [30]: 1.71 µM
- GI50 [31]: 0.302 µM
- TGI [31]: 1.32 µM
- GI50 [32]: 0.778 µM
- TGI [32]: 9.66 µM
- GI50 [33]: 0.364 µM
- TGI [33]: 2.04 µM
- GI50 [34]: 0.581 µM
- TGI [34]: 17.5 µM
- GI50 [35]: 1.6 µM
- TGI [35]: 10.1 µM
- GI50 [36]: 0.39 µM
- TGI [36]: 2.46 µM
- GI50 [37]: 0.311 µM
- TGI [37]: 1.62 µM
- GI50 [38]: 0.288 µM
- TGI [38]: 1.03 µM
- GI50 [39]: 1.38 µM
- TGI [39]: 4.09 µM
- GI50 [40]: 0.645 µM
- TGI [40]: 4.35 µM
- GI50 [41]: 0.622 µM
- TGI [41]: 2.25 µM
- GI50 [42]: 1.48 µM
- TGI [42]: 3.61 µM
- GI50 [43]: 0.454 µM
- TGI [43]: 1.91 µM
- GI50 [44]: 1.07 µM
- TGI [44]: 4.83 µM
- GI50 [45]: 1.09 µM
- TGI [45]: 2.33 µM
- GI50 [46]: 1.22 µM
- TGI [46]: 6.68 µM
- GI50 [47]: 0.427 µM
- TGI [47]: 3.05 µM
- GI50 [48]: 0.612 µM
- TGI [48]: 12.7 µM
- GI50 [49]: 1.18 µM
- TGI [49]: 6.86 µM
- GI50 [50]: 0.439 µM
- TGI [50]: 3.51 µM
- GI50 [51]: 0.422 µM
- TGI [51]: 2.72 µM
- GI50 [52]: 0.476 µM
- TGI [52]: 6.27 µM
- GI50 [53]: 0.684 µM
- TGI [53]: 14.6 µM
- GI50 [54]: 0.336 µM
- TGI [54]: 1.36 µM
- GI50 [55]: 0.686 µM
- TGI [55]: 2.68 µM
- GI50 [56]: 0.416 µM
- TGI [56]: 1.71 µM
- GI50 [57]: 0.28 µM
- TGI [57]: 1.92 µM

SMILES: COc1ccc(NC(=O)COCCOCCNC[C@@H]2C(=O)O[C@H]3[C@H]2CC/C(COC(=O)OC/C2=C/CC[C@@]4(C)O[C@H]4[C@H]4OC(=O)[C@@H](CN(C)C)[C@@H]4CC2)=C\CC[C@@]2(C)O[C@@H]32)c(O)c1C(N)=O
- GI50 [1]: 6.17 µM
- TGI [1]: 13.7 µM
- GI50 [2]: 16.6 µM
- TGI [2]: > 50 µM
- GI50 [3]: 31.8 µM
- TGI [3]: > 50 µM
- GI50 [4]: 0.987 µM
- TGI [4]: 2.21 µM
- GI50 [5]: 6.19 µM
- TGI [5]: 12.9 µM
- GI50 [7]: 1.21 µM
- TGI [7]: 3.27 µM
- GI50 [8]: 1.06 µM
- TGI [8]: 2.52 µM
- GI50 [9]: 7.21 µM
- TGI [9]: 13.7 µM
- GI50 [58]: 5.76 µM
- TGI [58]: 14.7 µM
- GI50 [10]: 10.2 µM
- TGI [10]: 19.1 µM
- GI50 [11]: 3.5 µM
- TGI [11]: 9.86 µM
- GI50 [12]: 1.44 µM
- TGI [12]: 6.14 µM
- GI50 [13]: 0.77 µM
- TGI [13]: 1.91 µM
- GI50 [14]: 39.9 µM
- TGI [14]: > 50 µM
- GI50 [15]: 1.71 µM
- TGI [15]: 6.93 µM
- GI50 [16]: 14.7 µM
- TGI [16]: > 50 µM
- GI50 [17]: 1.71 µM
- TGI [17]: 5.77 µM
- GI50 [18]: 4.68 µM
- TGI [18]: 11.8 µM
- GI50 [20]: 9.72 µM
- TGI [20]: 22.5 µM
- GI50 [21]: 5.31 µM
- TGI [21]: 11.4 µM
- GI50 [22]: 7.22 µM
- TGI [22]: 15.5 µM
- GI50 [23]: 1.52 µM
- TGI [23]: 4.12 µM
- GI50 [24]: 1.63 µM
- TGI [24]: 9.01 µM
- GI50 [25]: 5.03 µM
- TGI [25]: 11.3 µM
- GI50 [26]: 5.19 µM
- TGI [26]: 12.3 µM
- GI50 [27]: 1.63 µM
- TGI [27]: 6 µM
- GI50 [28]: 8.33 µM
- TGI [28]: 16.2 µM
- GI50 [29]: 9.06 µM
- TGI [29]: 22.1 µM
- GI50 [30]: 16.5 µM
- TGI [30]: > 50 µM
- GI50 [31]: 0.888 µM
- TGI [31]: 1.88 µM
- GI50 [32]: > 50 µM
- TGI [32]: > 50 µM
- GI50 [33]: 1.47 µM
- TGI [33]: 5.26 µM
- GI50 [34]: 3.19 µM
- TGI [34]: 10.2 µM
- GI50 [35]: 8.9 µM
- TGI [35]: 17.4 µM
- GI50 [36]: 3.56 µM
- TGI [36]: 12 µM
- GI50 [37]: 11.1 µM
- TGI [37]: 26.9 µM
- GI50 [38]: 1.42 µM
- TGI [38]: 4.21 µM
- GI50 [39]: 1.3 µM
- TGI [39]: 3.59 µM
- GI50 [40]: 8.7 µM
- TGI [40]: 18.7 µM
- GI50 [41]: > 50 µM
- TGI [41]: > 50 µM
- GI50 [42]: 3.42 µM
- TGI [42]: 9.92 µM
- GI50 [43]: 9.69 µM
- TGI [43]: 20.3 µM
- GI50 [44]: 2.79 µM
- TGI [44]: 9.57 µM
- GI50 [45]: 8.79 µM
- TGI [45]: 17.3 µM
- GI50 [46]: 40.6 µM
- TGI [46]: > 50 µM
- GI50 [47]: 7.74 µM
- TGI [47]: 17.5 µM
- GI50 [48]: 14.3 µM
- TGI [48]: > 50 µM
- GI50 [49]: 10.2 µM
- TGI [49]: > 50 µM
- GI50 [50]: 1.99 µM
- TGI [50]: 9.28 µM
- GI50 [51]: 1.14 µM
- TGI [51]: 2.87 µM
- GI50 [52]: 1.71 µM
- TGI [52]: 10.4 µM
- GI50 [53]: 2.72 µM
- TGI [53]: 9.12 µM
- GI50 [54]: 8.87 µM
- TGI [54]: 18 µM
- GI50 [55]: 6.1 µM
- TGI [55]: 13.2 µM
- GI50 [56]: 5.11 µM
- TGI [56]: 11.4 µM
- GI50 [57]: 2.51 µM
- TGI [57]: 9.13 µM
